Experimental data as given in US10906889B2, “Polycyclic inhibitors of cyclin-dependent kinase 7 (CDK7)” (Dana-Farber Cancer Institute, Inc., priority 2013, dated 2021).
Read-outs that look alike come from different tables or passages of the source. Blank lines part the entries; values can stand above or below the compound they belong to.

Columns and labels:
CDK7 = biological target: T1, CDK7 (Homo sapiens, UniProt P50613); assay: Adapta kinase assay (Life Technologies), CDK7; assay type: biochemical
T1 construct: purchased Life Technologies (assay service)
T1 sequence (P50613 whole entry): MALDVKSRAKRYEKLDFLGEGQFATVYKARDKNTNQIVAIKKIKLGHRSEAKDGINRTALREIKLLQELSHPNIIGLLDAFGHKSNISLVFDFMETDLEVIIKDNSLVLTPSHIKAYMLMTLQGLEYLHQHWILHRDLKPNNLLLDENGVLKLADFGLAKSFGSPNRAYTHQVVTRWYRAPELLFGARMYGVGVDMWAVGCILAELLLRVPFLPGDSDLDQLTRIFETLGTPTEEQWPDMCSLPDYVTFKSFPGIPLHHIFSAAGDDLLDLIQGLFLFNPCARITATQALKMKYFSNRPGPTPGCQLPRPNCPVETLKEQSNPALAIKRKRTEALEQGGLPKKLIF
T1 sequence (P51946 whole entry partner): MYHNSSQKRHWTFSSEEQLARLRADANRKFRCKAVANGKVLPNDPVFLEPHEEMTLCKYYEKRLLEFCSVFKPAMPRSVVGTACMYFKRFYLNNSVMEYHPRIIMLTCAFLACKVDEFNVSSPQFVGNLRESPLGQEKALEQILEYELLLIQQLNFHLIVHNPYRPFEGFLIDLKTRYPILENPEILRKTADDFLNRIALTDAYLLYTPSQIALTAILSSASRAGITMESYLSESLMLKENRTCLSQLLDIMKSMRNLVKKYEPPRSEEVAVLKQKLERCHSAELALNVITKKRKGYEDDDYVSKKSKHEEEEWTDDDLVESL
T1 sequence (P51948 whole entry partner): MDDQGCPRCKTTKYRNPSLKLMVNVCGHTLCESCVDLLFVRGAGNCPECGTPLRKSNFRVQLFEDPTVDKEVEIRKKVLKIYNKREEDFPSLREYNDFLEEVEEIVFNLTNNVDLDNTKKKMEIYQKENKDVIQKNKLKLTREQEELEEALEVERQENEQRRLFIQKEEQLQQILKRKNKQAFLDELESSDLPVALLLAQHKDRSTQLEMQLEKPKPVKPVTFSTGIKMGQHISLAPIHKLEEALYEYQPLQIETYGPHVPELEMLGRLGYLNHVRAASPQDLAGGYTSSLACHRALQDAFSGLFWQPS

CDK2 = biological target: T2, CDK2 (Homo sapiens, UniProt P24941); assay: Z'-Lyte kinase assay (Life Technologies), CDK2; assay type: biochemical; conditions: co-factor cyclin A; for inhibition at 0.1 µM: compound tested at 100 nM, read-out: CDK2^a percent inhibition; for inhibition at 1 µM: compound tested at 1 μM, read-out: CDK2^b percent inhibition
T2 construct: purchased Life Technologies (assay service)

CDK8 = biological target: T3, CDK8 (Homo sapiens, UniProt P49336); assay: LanthaScreen Eu kinase assay (Life Technologies), CDK8; assay type: binding; conditions: co-factor cyclin C; for inhibition at 0.1 µM: compound tested at 100 nM, read-out: CDK8^a percent inhibition; for inhibition at 1 µM: compound tested at 1 μM, read-out: CDK8^b percent inhibition
T3 construct: purchased Life Technologies (assay service)
T3 sequence (P49336 whole entry): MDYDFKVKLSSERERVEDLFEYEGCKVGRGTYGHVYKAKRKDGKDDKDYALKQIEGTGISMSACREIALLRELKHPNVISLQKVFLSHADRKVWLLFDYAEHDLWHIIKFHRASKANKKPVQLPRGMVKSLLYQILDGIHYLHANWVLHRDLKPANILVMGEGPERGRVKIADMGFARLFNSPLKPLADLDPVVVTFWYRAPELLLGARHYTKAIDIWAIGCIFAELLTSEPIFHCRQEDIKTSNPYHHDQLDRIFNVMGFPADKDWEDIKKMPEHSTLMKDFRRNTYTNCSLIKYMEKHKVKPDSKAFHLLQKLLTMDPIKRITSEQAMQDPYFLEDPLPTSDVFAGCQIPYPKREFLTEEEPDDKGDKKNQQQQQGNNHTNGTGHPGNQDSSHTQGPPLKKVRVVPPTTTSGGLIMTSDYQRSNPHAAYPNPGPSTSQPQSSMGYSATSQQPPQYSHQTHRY
T3 sequence (P24863 whole entry partner): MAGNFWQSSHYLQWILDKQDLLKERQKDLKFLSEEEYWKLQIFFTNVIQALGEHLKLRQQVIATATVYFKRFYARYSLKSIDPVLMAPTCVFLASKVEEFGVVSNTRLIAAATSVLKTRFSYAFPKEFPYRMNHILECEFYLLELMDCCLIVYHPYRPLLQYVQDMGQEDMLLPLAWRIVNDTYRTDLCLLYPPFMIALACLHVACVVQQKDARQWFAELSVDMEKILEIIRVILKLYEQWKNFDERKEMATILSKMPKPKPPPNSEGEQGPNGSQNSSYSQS

CDK5/p25 = CDK5/p25 (Homo sapiens, UniProt Q00535); assay: Z'-Lyte kinase assay (Life Technologies), CDK5/p25; conditions: for inhibition at 0.1 µM: read-out: CDK5^a,c percent inhibition; for inhibition at 1 µM: read-out: CDK5^b,c percent inhibition
CDK5/p25, sequence (Q00535 whole entry): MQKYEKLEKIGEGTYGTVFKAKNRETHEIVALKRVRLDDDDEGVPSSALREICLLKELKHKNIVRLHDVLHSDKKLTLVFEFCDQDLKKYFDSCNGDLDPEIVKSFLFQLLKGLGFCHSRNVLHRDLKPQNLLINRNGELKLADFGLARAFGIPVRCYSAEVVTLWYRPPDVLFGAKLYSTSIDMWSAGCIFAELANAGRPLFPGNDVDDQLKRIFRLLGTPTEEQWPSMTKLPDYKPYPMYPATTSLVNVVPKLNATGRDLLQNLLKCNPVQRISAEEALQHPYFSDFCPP
CDK5/p25, sequence (Q15078 99-307 partner limits assumed): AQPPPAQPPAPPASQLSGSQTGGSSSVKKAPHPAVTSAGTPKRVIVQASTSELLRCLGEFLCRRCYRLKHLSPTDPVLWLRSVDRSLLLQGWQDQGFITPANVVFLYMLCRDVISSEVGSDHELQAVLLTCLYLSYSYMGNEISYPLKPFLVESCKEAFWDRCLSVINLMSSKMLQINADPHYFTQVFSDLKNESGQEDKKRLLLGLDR

CDK9/cyclin T1 = CDK9/cyclin T1 (Homo sapiens, UniProt P50750); assay: Adapta kinase assay (Life Technologies), CDK9/cyclin T1; conditions: for inhibition at 0.1 µM: read-out: CDK9^a,e percent inhibition; for inhibition at 1 µM: read-out: CDK9^b,e percent inhibition
CDK9/cyclin K = CDK9/cyclin K (Homo sapiens, UniProt P50750); assay: LanthaScreen Eu kinase assay (Life Technologies), CDK9/cyclin K
MLK3 = biological target: T4, MLK3 (Homo sapiens, UniProt Q16584); assay: LanthaScreen Eu kinase assay (Life Technologies), MLK3; assay type: binding; conditions: for IC50: Table 2, read-out: MLK3 (calculated IC50); for inhibition at 0.1 µM: compound tested at 100 nM, read-out: MLK3^a percent inhibition
T4 construct: purchased Life Technologies (assay service)

CDK1 = biological target: T5, CDK1 (Homo sapiens, UniProt P06493); assay: Z'-Lyte kinase assay (Life Technologies), CDK1; assay type: biochemical; conditions: co-factor cyclin B; for inhibition at 0.1 µM: compound tested at 100 nM, read-out: CDK1^a percent inhibition; for inhibition at 1 µM: compound tested at 1 μM, read-out: CDK1^b percent inhibition
T5 construct: purchased Life Technologies (assay service)
T5 sequence (P06493 whole entry): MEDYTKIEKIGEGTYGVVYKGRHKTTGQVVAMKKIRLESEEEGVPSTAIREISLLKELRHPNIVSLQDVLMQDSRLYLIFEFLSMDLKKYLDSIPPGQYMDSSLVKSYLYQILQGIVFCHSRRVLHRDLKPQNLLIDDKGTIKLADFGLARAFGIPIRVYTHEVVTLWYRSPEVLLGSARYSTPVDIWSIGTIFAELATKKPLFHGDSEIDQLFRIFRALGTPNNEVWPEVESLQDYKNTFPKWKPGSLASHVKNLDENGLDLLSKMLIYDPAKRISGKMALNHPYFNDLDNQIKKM
T5 sequence (P14635 whole entry partner): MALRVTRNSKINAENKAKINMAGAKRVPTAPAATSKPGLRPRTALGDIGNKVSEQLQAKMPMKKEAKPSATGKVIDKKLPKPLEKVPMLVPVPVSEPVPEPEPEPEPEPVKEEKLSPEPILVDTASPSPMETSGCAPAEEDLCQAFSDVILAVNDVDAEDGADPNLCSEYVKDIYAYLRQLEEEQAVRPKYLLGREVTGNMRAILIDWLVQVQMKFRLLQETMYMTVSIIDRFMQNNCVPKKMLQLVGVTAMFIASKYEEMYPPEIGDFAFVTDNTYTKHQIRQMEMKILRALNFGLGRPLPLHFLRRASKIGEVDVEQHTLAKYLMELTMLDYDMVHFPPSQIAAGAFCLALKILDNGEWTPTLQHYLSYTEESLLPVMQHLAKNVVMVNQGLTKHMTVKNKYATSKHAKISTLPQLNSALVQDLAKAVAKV

IRAK1 = biological target: T6, IRAK1 (Homo sapiens, UniProt P51617); assay: Adapta kinase assay (Life Technologies), IRAK1; assay type: biochemical; conditions: for inhibition at 0.1 µM: compound tested at 100 nM, read-out: IRAK1^a percent inhibition; for inhibition at 1 µM: compound tested at 1 μM, read-out: IRAK1^b percent inhibition
T6 construct: purchased Life Technologies (assay service)

JNK1 = biological target: T7, JNK1 (Homo sapiens, UniProt P45983); assay: Z'-Lyte kinase assay (Life Technologies), JNK1; assay type: biochemical; conditions: for inhibition at 0.1 µM: compound tested at 100 nM, read-out: JNK1^a percent inhibition; for inhibition at 1 µM: compound tested at 1 μM, read-out: JNK1^b percent inhibition
T7 construct: purchased Life Technologies (assay service)
T7 sequence (P45983 whole entry): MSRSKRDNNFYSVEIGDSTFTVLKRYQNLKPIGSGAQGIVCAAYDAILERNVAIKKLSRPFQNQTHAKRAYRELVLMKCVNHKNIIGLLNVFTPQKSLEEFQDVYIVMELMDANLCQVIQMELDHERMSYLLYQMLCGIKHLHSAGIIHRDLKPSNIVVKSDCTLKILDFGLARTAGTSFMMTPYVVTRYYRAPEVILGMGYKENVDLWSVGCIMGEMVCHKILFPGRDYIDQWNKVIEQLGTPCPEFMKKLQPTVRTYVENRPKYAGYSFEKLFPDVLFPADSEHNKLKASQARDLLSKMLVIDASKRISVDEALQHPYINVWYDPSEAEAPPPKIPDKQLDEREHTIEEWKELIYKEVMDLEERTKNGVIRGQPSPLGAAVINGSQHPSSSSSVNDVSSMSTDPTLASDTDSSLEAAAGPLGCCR

JNK2 = biological target: T8, JNK2 (Homo sapiens, UniProt P45984); assay: Z'-Lyte kinase assay (Life Technologies), JNK2; assay type: biochemical; conditions: for inhibition at 0.1 µM: compound tested at 100 nM, read-out: JNK2^a percent inhibition; for inhibition at 1 µM: compound tested at 1 μM, read-out: JNK2^b percent inhibition
T8 construct: purchased Life Technologies (assay service)
T8 sequence (P45984 whole entry): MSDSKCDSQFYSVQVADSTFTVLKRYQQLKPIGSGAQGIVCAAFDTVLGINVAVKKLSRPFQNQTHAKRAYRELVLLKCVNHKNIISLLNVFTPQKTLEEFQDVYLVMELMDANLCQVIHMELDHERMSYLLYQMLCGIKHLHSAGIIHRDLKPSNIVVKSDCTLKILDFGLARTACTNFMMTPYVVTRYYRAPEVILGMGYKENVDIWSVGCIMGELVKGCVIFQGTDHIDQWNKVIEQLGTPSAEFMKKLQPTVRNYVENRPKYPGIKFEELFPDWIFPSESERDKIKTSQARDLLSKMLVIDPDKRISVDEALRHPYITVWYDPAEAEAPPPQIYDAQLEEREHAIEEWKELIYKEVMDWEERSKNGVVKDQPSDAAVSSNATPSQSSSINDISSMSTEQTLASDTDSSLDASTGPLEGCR

HL60 = assay: Cell proliferation (CellTiter-Glo, 72 hour), HL60; assay type: cell-based; conditions: Homo sapiens, HL-60, blood cancer cell line, read-out: HL60 inhibition of proliferation (IC50)
THP-1 = assay: Cell proliferation (CellTiter-Glo, 72 hour), THP-1; assay type: cell-based; conditions: Homo sapiens, blood cancer cell line, read-out: THP-1 inhibition of proliferation (IC50)
MV4-11 = assay: Cell proliferation (CellTiter-Glo, 72 hour), MV4-11; assay type: cell-based; conditions: Homo sapiens, blood cancer cell line, read-out: MV4-11 inhibition of proliferation (IC50)
RS4-11 = assay: Cell proliferation (CellTiter-Glo, 72 hour), RS4-11; assay type: cell-based; conditions: Homo sapiens, blood cancer cell line, read-out: RS4-11 inhibition of proliferation (IC50)
hTERT-HME1 = assay: Cell proliferation (CellTiter-Glo, 72 hour), hTERT-HME1; assay type: cell-based; conditions: breast cancer cell lines table, read-out: hTERT-HME1 inhibition of proliferation (IC50)
MDA-MB231 = assay: Cell proliferation (CellTiter-Glo, 72 hour), MDA-MB231; assay type: cell-based; conditions: Homo sapiens, MDA-MB-231, breast cancer cell line, read-out: MDA-MB231 inhibition of proliferation (IC50)
MCF7 = assay: Cell proliferation (CellTiter-Glo, 72 hour), MCF7; assay type: cell-based; conditions: Homo sapiens, breast cancer cell line, read-out: MCF7 inhibition of proliferation (IC50)
MCF10A = assay: Cell proliferation (CellTiter-Glo, 72 hour), MCF10A; assay type: cell-based; conditions: Homo sapiens, MCF-10A, breast cancer cell lines table, read-out: MCF10A inhibition of proliferation (IC50)
T47D = assay: Cell proliferation (CellTiter-Glo, 72 hour), T47D; assay type: cell-based; conditions: Homo sapiens, breast cancer cell line, read-out: T47D inhibition of proliferation (IC50)
SKBR3 = assay: Cell proliferation (CellTiter-Glo, 72 hour), SKBR3; assay type: cell-based; conditions: Homo sapiens, SK-BR-3, breast cancer cell line, read-out: SKBR3 inhibition of proliferation (IC50)
A673 = assay: Cell proliferation (CellTiter-Glo, 72 hour), A673; assay type: cell-based; conditions: Homo sapiens, Ewing's sarcoma cell line, read-out: A673 inhibition of proliferation (IC50)
Hs822T = assay: Cell proliferation (CellTiter-Glo, 72 hour), Hs822T; assay type: cell-based; conditions: Ewing's sarcoma cell line, read-out: Hs822T inhibition of proliferation (IC50)
Hs863T = assay: Cell proliferation (CellTiter-Glo, 72 hour), Hs863T; assay type: cell-based; conditions: Ewing's sarcoma cell line, read-out: Hs863T inhibition of proliferation (IC50)
RD-ES = assay: Cell proliferation (CellTiter-Glo, 72 hour), RD-ES; assay type: cell-based; conditions: Ewing's sarcoma cell line, read-out: RD-ES inhibition of proliferation (IC50)
SK-ES-1 = assay: Cell proliferation (CellTiter-Glo, 72 hour), SK-ES-1; assay type: cell-based; conditions: Homo sapiens, SK-ES1, Ewing's sarcoma cell line, read-out: SK-ES-1 inhibition of proliferation (IC50)
SAOS = assay: Cell proliferation (CellTiter-Glo, 72 hour), SAOS; assay type: cell-based; conditions: osteosarcoma cell line, read-out: SAOS inhibition of proliferation (IC50)
MNNG-HOS Cl #5 = assay: Cell proliferation (CellTiter-Glo, 72 hour), MNNG-HOS Cl #5; assay type: cell-based; conditions: osteosarcoma cell line, read-out: MNNG-HOS Cl#5 inhibition of proliferation (IC50)
143B = assay: Cell proliferation (CellTiter-Glo, 72 hour), 143B; assay type: cell-based; conditions: Homo sapiens, osteosarcoma cell line, read-out: 143B inhibition of proliferation (IC50)
Jurkat cells = assay: Cell proliferation (CellTiter-Glo, 72 hour), Jurkat; assay type: cell-based; conditions: Homo sapiens, blood cancer cell line
CDK5/p35 = CDK5/p35 (Homo sapiens, UniProt Q00535); assay: Z'-Lyte kinase assay (Life Technologies), CDK5/p35; conditions: for inhibition at 0.1 µM: read-out: CDK5^a,d percent inhibition; for inhibition at 1 µM: read-out: CDK5^b,d percent inhibition
CDK5/p35, sequence (Q00535 whole entry): as the sequence (Q00535 whole entry) above
CDK5/p35, sequence (Q15078 whole entry partner): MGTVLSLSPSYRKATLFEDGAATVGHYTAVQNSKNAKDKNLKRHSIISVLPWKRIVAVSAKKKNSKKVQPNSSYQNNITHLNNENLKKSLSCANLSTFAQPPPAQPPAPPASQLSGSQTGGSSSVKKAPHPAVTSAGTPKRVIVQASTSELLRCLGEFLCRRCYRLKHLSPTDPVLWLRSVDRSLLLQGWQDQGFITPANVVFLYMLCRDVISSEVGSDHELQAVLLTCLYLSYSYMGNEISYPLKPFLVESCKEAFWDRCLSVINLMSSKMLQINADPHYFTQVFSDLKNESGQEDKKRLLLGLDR

[1] = Table 1C, co-factors cyclin H and MNAT1, read-out: CDK7 IC50
[2] = Table 2, co-factors cyclin H and MNAT1, read-out: CDK7 (calculated IC50)

IC50 (CDK7; [1]): < 100 nM | IC50 (CDK7; [2]): < 100 nM | IC50 (CDK2; Table 2, read-out: CDK2 (calculated IC50)): > 1000 nM | IC50 (CDK8; Table 2, read-out: CDK8 (calculated IC50)): 100 to 1000 nM | IC50 (CDK5/p25): > 1000 nM | IC50 (CDK9/cyclin T1): 100 to 1000 nM | IC50 (CDK9/cyclin K): 100 to 1000 nM
Structure (SMILES): CN(C)C/C=C/C(=O)Nc1ccc(C(=O)NC2CCCC(Nc3ncc(Cl)c(-c4c[nH]c5ccccc45)n3)C2)cc1 (stereo not shown) [Compound 100, (E)-N-(3-((5-chloro-4-(1H-indol-3-yl)pyrimidin-2-yl)amino)cyclohexyl)-4-(4-(dimethylamino)but-2-enamido)benzamide]

IC50 (CDK7; [1]): < 100 nM | IC50 (CDK7; [2]): < 100 nM | inhibition at 0.1 µM (CDK2): < 50% | inhibition at 1 µM (CDK2): < 50% | inhibition at 0.1 µM (CDK8): < 50% | inhibition at 1 µM (CDK8): < 50% | IC50 (MLK3): > 1000 nM | inhibition at 0.1 µM (MLK3): < 50% | inhibition at 0.1 µM (CDK1): < 50% | inhibition at 1 µM (CDK1): < 50% | inhibition at 0.1 µM (IRAK1): < 50% | inhibition at 1 µM (IRAK1): < 50% | inhibition at 0.1 µM (JNK1): < 50% | inhibition at 1 µM (JNK1): 50 to 70% | inhibition at 0.1 µM (JNK2): < 50% | inhibition at 1 µM (JNK2): 50 to 70% | IC50 (HL60): < 500 nM | IC50 (THP-1): < 500 nM | IC50 (MV4-11): < 500 nM | IC50 (RS4-11): < 500 nM | IC50 (MDA-MB231): < 500 nM | IC50 (MCF7): > 5000 nM | IC50 (T47D): > 5000 nM | IC50 (SKBR3): > 5000 nM | IC50 (SK-ES-1): < 500 nM | IC50 (Jurkat cells): < 500 nM | IC50 (CDK5/p25): > 1000 nM | inhibition at 0.1 µM (CDK5/p25): < 50% | inhibition at 1 µM (CDK5/p25): < 50% | inhibition at 0.1 µM (CDK5/p35): < 50% | inhibition at 1 µM (CDK5/p35): < 50% | inhibition at 0.1 µM (CDK9/cyclin T1): < 50% | inhibition at 1 µM (CDK9/cyclin T1): < 50%
Structure (SMILES): CN(C)C/C=C/C(=O)Nc1ccc(C(=O)N[C@H]2CCC[C@@H](Nc3ncc(Cl)c(-c4c[nH]c5ccccc45)n3)C2)cc1 [Compound 102, N-((1S,3R)-3-(5-chloro-4-(1H-indol-3-yl)pyrimidin-2-ylamino)cyclohexyl)-4-((E)-4-(dimethylamino)but-2-enamido)benzamide]
IC50 (hTERT-HME1): < 500 nM | IC50 (MCF10A): < 500 nM | IC50 (A673): < 500 nM | IC50 (Hs822T): > 5000 nM | IC50 (Hs863T): > 5000 nM | IC50 (RD-ES): < 500 nM | IC50 (SAOS): < 500 nM | IC50 (MNNG-HOS Cl #5): > 5000 nM | IC50 (143B): > 5000 nM

IC50 (CDK7; [1]): 100 to 1000 nM | IC50 (CDK7; [2]): 100 to 1000 nM | inhibition at 0.1 µM (CDK2): < 50% | inhibition at 1 µM (CDK2): < 50% | inhibition at 0.1 µM (CDK8): < 50% | inhibition at 1 µM (CDK8): < 50% | IC50 (MLK3): > 1000 nM | inhibition at 0.1 µM (MLK3): < 50% | inhibition at 0.1 µM (CDK1): < 50% | inhibition at 1 µM (CDK1): < 50% | inhibition at 0.1 µM (IRAK1): < 50% | inhibition at 1 µM (IRAK1): < 50% | inhibition at 0.1 µM (JNK1): < 50% | inhibition at 1 µM (JNK1): 50 to 70% | inhibition at 0.1 µM (JNK2): < 50% | inhibition at 1 µM (JNK2): > 70% | IC50 (HL60): 500 to 5000 nM | IC50 (THP-1): 500 to 5000 nM | IC50 (MV4-11): < 500 nM | IC50 (RS4-11): 500 to 5000 nM | IC50 (MDA-MB231): 500 to 5000 nM | IC50 (MCF7): 500 to 5000 nM | IC50 (T47D): > 5000 nM | IC50 (SKBR3): > 5000 nM | IC50 (SK-ES-1): 500 to 5000 nM | IC50 (Jurkat cells): 500 to 5000 nM | IC50 (CDK5/p25): > 1000 nM | inhibition at 0.1 µM (CDK5/p25): < 50% | inhibition at 1 µM (CDK5/p25): < 50% | inhibition at 0.1 µM (CDK5/p35): < 50% | inhibition at 1 µM (CDK5/p35): < 50% | inhibition at 0.1 µM (CDK9/cyclin T1): < 50% | inhibition at 1 µM (CDK9/cyclin T1): 50 to 70%
Structure (SMILES): CN(C)C/C=C/C(=O)Nc1ccc(C(=O)N[C@H]2CCC[C@H](Nc3ncc(Cl)c(-c4c[nH]c5ccccc45)n3)C2)cc1 [compound 103]
IC50 (hTERT-HME1): 500 to 5000 nM | IC50 (MCF10A): < 500 nM | IC50 (A673): < 500 nM | IC50 (Hs822T): > 5000 nM | IC50 (Hs863T): > 5000 nM | IC50 (RD-ES): 500 to 5000 nM | IC50 (SAOS): 500 to 5000 nM | IC50 (MNNG-HOS Cl #5): > 5000 nM | IC50 (143B): > 5000 nM
